Source: patent US4803209A, “Substituted 2,3-diphenyl-1,2-dihydroquinoxalines” (International Minerals & Chemical Corp., priority 1987, dated 1989)
Where two headings read alike, the source gives them in different places. Where a SMILES comes first, the peptide text is derived from it. Bridges are numbered along the chain shown (N, C = ends). [ ]: non-standard residue; d: D form. The star is where a group is joined. Ileψ(thiazoline)Cys = CC[C@H](C)[C@H](N)C1=N[C@H](C(=O)*)CS1; dOrn = NCCC[C@@H](N)C(=O)O

How the values were obtained:
[1] = system: Eimeria tenella Eli Lilly Strain 65 (Lilly 65); assay: In vitro anticoccidial test in chick kidney cell monolayers; type: cell-based; details: 72 h, 3 days, read-out: % Inhibition of Coccidia
Salmonella typhimurium = type: cell-based
[2] = system: Streptococcus sp. 1 X A7 (Strep A7); type: cell-based
[3] = system: Streptococcus sp. 1 X C15 (Strep C15); type: cell-based
[4] = system: Bacteroides fragilis (Bf); assay: Antimicrobial growth inhibition, Bf; type: cell-based; details: Anaerobic, 6 h, 37° C.
[5] = system: Clostridium perfringens (Cp); type: cell-based; details: Anaerobic, 6 h, 37° C.
[6] = system: E. coli strain 046 (E.C. 046); type: cell-based
[7] = system: antibiotic resistant E. coli (E.C. 324); type: cell-based; details: Gram Neg., 6 h, 37° C., aerobic
[8] = Growth promotion and feed utilization in chicks; type: in vivo, chicks (broiler cockerels); details: 8 weeks
[9] = experiment set 1, 75 ppm in feed
[10] = experiment set 2, 50 ppm in feed
[11] = experiment set 3, 50 ppm in feed
[12] = experiment set 4, 50 ppm in feed
[13] = experiment set 5, 50 ppm in feed

Molecule	Growth of S.T. in the presence of the test compound (Salmonella typhimurium; 6.4 ppm)	Growth of S.T. in the presence of the test compound (Salmonella typhimurium; 64 ppm)	Growth of Strep A7 in the presence of the test compound ([2]; 6.4 ppm)	Growth of Strep A7 in the presence of the test compound ([2]; 64 ppm)	Growth of Strep C15 in the presence of the test compound ([3]; 6.4 ppm)	Growth of Strep C15 in the presence of the test compound ([3]; 64 ppm)	Growth of Bf in the presence of the test compound ([4]; 6.4 ppm)	Growth of Bf in the presence of the test compound ([4]; 64 ppm)	Growth of Cp in the presence of the test compound ([5]; 6.4 ppm)	Growth of Cp in the presence of the test compound ([5]; 64 ppm)	Growth of E.C. 046 in the presence of the test compound ([6]; 6.4 ppm)	Growth of E.C. 046 in the presence of the test compound ([6]; 64 ppm)	Growth of E.C. 324 in the presence of the test compound ([7]; 6.4 ppm)	Growth of E.C. 324 in the presence of the test compound ([7]; 64 ppm)	other results
Clc1ccc(C2=Nc3cc(Cl)c(Cl)cc3NC2c2ccc(Cl)cc2Cl)c(Cl)c1 (stereo not drawn) [Example 3, 2,3-di(2,4-dichlorophenyl)-6,7-dichloro-1,2-dihydroquinoxaline]															inhibition at 0.1 ppm [1]: 88.6%; inhibition at 10 ppm [1]: 98%
CC[C@H]1OC(=O)[C@H](C)[C@@H](O[C@H]2C[C@@](C)(OC)[C@@H](O)[C@H](C)O2)[C@H](C)[C@@H](O[C@@H]2O[C@H](C)C[C@H](N(C)C)[C@H]2O)[C@](C)(O)C[C@@H](C)C(=O)[C@H](C)[C@@H](O)[C@]1(C)O [Erythromycin]	+	-	-	-	-	-	+	-	+	+	+	-	+	+	
CC1(C)S[C@@H]2[C@H](NC(=O)Cc3ccccc3)C(=O)N2[C@H]1C(=O)O [Penicillin]	+	-	-	-	-	-	+	-	+	+	+	-	+	-	feed efficiency (% better or worse than control) [8, 9]: 5.5%; weight gain (% better or worse than control) [8, 9]: 20%; feed efficiency (% better or worse than control) [8, 10]: 32%; weight gain (% better or worse than control) [8, 10]: 40%; feed efficiency (% better or worse than control) [8, 11]: 13%; weight gain (% better or worse than control) [8, 11]: 35%; feed efficiency (% better or worse than control) [8, 12]: 11%; weight gain (% better or worse than control) [8, 12]: 19%; feed efficiency (% better or worse than control) [8, 13]: 21%; weight gain (% better or worse than control) [8, 13]: 50%
Gentamicin	-	-	-	-	-	-	-	-	+	+	+	-	+	-	feed efficiency (% better or worse than control) [8, 11]: 15%; weight gain (% better or worse than control) [8, 11]: 32%
CC[C@H](C)[C@H](N)C1=N[C@H](C(=O)N[C@@H](CC(C)C)C(=O)N[C@H](CCC(=O)O)C(=O)N[C@H](C(=O)N[C@H]2CCCCNC(=O)[C@H](CC(N)=O)NC(=O)[C@@H](CC(=O)O)NC(=O)[C@H](Cc3cnc[nH]3)NC(=O)[C@@H](Cc3ccccc3)NC(=O)[C@H]([C@@H](C)CC)NC(=O)[C@@H](CCCN)NC2=O)[C@@H](C)CC)CS1 [Bacitracin] ({Ileψ(thiazoline)Cys}-L[dE]IK[dOrn]I[dF]H[dD]N; lactam 4-C)	+	+	-	-	-	-	-	-	+	-	+	+	+	+	feed efficiency (% better or worse than control) [8, 9]: 19%; weight gain (% better or worse than control) [8, 9]: 25%; feed efficiency (% better or worse than control) [8, 10]: 32%; weight gain (% better or worse than control) [8, 10]: 40%
CN(C)[C@@H]1C(O)=C(C(N)=O)C(=O)[C@@]2(O)C(O)=C3C(=O)c4c(O)ccc(Cl)c4[C@@](C)(O)[C@H]3C[C@@H]12 [Chlortetracycline]	-	-	-	-	-	-	+	-	+	+	+	-	+	-	
NC[C@H]1O[C@H](O[C@H]2[C@H](O)[C@@H](O[C@H]3O[C@H](CO)[C@@H](O)[C@H](N)[C@H]3O)[C@H](N)C[C@@H]2N)[C@H](O)[C@@H](O)[C@@H]1O [Kanamycin]	+	-	-	-	-	-	-	-	+	+	+	+	+	-	feed efficiency (% better or worse than control) [8, 12]: 19%; weight gain (% better or worse than control) [8, 12]: 14%
Clc1ccc(C2=Nc3ccccc3NC2c2ccc(Cl)cc2Cl)c(Cl)c1 (stereo not drawn) [Example 6, 2,3-di(2,4-dichlorophenyl)-1,2-dihydroquinoxaline]															inhibition at 0.1 ppm [1]: 60%; inhibition at 10 ppm [1]: 100%
CC[C@H]1OC(=O)C[C@@H](O)[C@H](C)[C@@H](O[C@@H]2O[C@H](C)[C@@H](O[C@H]3C[C@@](C)(O)[C@@H](O)[C@H](C)O3)[C@H](N(C)C)[C@H]2O)[C@@H](CC=O)C[C@@H](C)C(=O)/C=C/C(C)=C/[C@@H]1CO[C@@H]1O[C@H](C)[C@@H](O)[C@@H](OC)[C@H]1OC [Tylosin]	+	+	-	-	-	-	-	-	+	-	+	+	+	+	
